Columns and labels:
Assay in all cases: relative viability (nuclei count vs DMSO), 5 days (fraction); higher = more cells survive
NCI-H23 = system: NCI-H23
How it was run: (§1)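 Lung cancer cell lines were pin-tool dosed in 1536-well plates on the day after seeding, with either a lone drug or a fixed anchor-drug dose plus five library-drug doses (not always all listed) in √10 steps. Nuclei were counted on 4× images after 5 days. Relative viability is the ratio of treated-well to vehicle-well nuclei counts, with each value a median of duplicate plates.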

HOP-62 = system: HOP-62
How it was run: as §1

ABC-1 = system: ABC-1
How it was run: as §1

NCI-H1395 = system: NCI-H1395
How it was run: as §1

NCI-H2126 = system: NCI-H2126
How it was run: as §1

NCI-H1944 = system: NCI-H1944
How it was run: as §1

HCC-78 = system: HCC-78
How it was run: as §1

NCI-H1993 = system: NCI-H1993
How it was run: as §1

HCC-366 = system: HCC-366
How it was run: as §1

EMC-BAC-2 = system: EMC-BAC-2
How it was run: as §1

LC-2-ad = system: LC-2-ad
How it was run: as §1

NCI-H2228 = system: NCI-H2228
How it was run: as §1

ChaGo-K-1 = system: ChaGo-K-1
How it was run: as §1

HARA = system: HARA
How it was run: as §1

HCC-15 = system: HCC-15
How it was run: as §1

NCI-H358 = system: NCI-H358
How it was run: as §1

NCI-H838 = system: NCI-H838
How it was run: as §1

SK-LU-1 = system: SK-LU-1
How it was run: as §1

NCI-H2405 = system: NCI-H2405
How it was run: as §1

NCI-H2023 = system: NCI-H2023
How it was run: as §1

COR-L23 = system: COR-L23
How it was run: as §1

NCI-H1793 = system: NCI-H1793
How it was run: as §1

`Nc1ccn([C@@H]2O[C@H](CO)[C@@H](O)[C@@H]2O)c(=O)n1` [Cytarabine] + Cc1cc(Nc2cc(N3CCN(C)CC3)nc(Sc3ccc(NC(=O)C4CC4)cc3)n2)n[nH]1 [Tozasertib] (partner 0.1 µM) gave a relative viability (NCI-H23; first compound 0.005 µM) of 0.362, a relative viability (NCI-H23; first compound 0.01581 µM) of 0.32 and a relative viability (NCI-H23; first compound 0.05 µM) of 0.243. For the same compound, the relative viability (NCI-H23; first compound 0.1581 µM) was 0.55, the relative viability (NCI-H23; first compound 0.5 µM) was 0.244 and the relative viability (HOP-62; first compound 0.005 µM) was 0.251. For the same compound, the relative viability (HOP-62; first compound 0.01581 µM) was 0.259, the relative viability (HOP-62; first compound 0.05 µM) was 0.282 and the relative viability (HOP-62; first compound 0.5 µM) was 0.0966. For the same compound, the relative viability (ABC-1; first compound 0.005 µM) was 0.209, the relative viability (ABC-1; first compound 0.01581 µM) was 0.176 and the relative viability (ABC-1; first compound 0.05 µM) was 0.174. It also gave a relative viability (ABC-1; first compound 0.1581 µM) of 0.154, a relative viability (ABC-1; first compound 0.5 µM) of 0.183 and a relative viability (NCI-H1395; first compound 0.005 µM) of 0.703. It also gave a relative viability (NCI-H1395; first compound 0.01581 µM) of 0.633, a relative viability (NCI-H1395; first compound 0.05 µM) of 0.434 and a relative viability (NCI-H1395; first compound 0.1581 µM) of 0.447. For the same compound, the relative viability (NCI-H1395; first compound 0.5 µM) was 0.388, the relative viability (NCI-H2126; first compound 0.005 µM) was 0.655 and the relative viability (NCI-H2126; first compound 0.01581 µM) was 0.774. The relative viability (NCI-H2126; first compound 0.05 µM) was 0.607, the relative viability (NCI-H2126; first compound 0.1581 µM) was 0.53 and the relative viability (NCI-H2126; first compound 0.5 µM) was 0.348. It also gave a relative viability (NCI-H1944; first compound 0.005 µM) of 0.211, a relative viability (NCI-H1944; first compound 0.01581 µM) of 0.195 and a relative viability (NCI-H1944; first compound 0.05 µM) of 0.184. The relative viability (NCI-H1944; first compound 0.1581 µM) was 0.149, the relative viability (NCI-H1944; first compound 0.5 µM) was 0.114 and the relative viability (HCC-78; first compound 0.005 µM) was 0.518. The relative viability (HCC-78; first compound 0.01581 µM) was 0.489, the relative viability (HCC-78; first compound 0.05 µM) was 0.389 and the relative viability (HCC-78; first compound 0.1581 µM) was 0.333. The relative viability (HCC-78; first compound 0.5 µM) was 0.253, the relative viability (NCI-H1993; first compound 0.005 µM) was 0.631 and the relative viability (NCI-H1993; first compound 0.01581 µM) was 0.633. The relative viability (NCI-H1993; first compound 0.05 µM) was 0.681, the relative viability (NCI-H1993; first compound 0.1581 µM) was 0.534 and the relative viability (NCI-H1993; first compound 0.5 µM) was 0.564. For the same compound, the relative viability (HCC-366; first compound 0.005 µM) was 0.149, the relative viability (HCC-366; first compound 0.01581 µM) was 0.119 and the relative viability (HCC-366; first compound 0.05 µM) was 0.0834. It also gave a relative viability (HCC-366; first compound 0.1581 µM) of 0.0612, a relative viability (HCC-366; first compound 0.5 µM) of 0.0652 and a relative viability (EMC-BAC-2; first compound 0.005 µM) of 0.302. It also gave a relative viability (EMC-BAC-2; first compound 0.01581 µM) of 0.288, a relative viability (EMC-BAC-2; first compound 0.05 µM) of 0.242 and a relative viability (EMC-BAC-2; first compound 0.1581 µM) of 0.233. For the same compound, the relative viability (EMC-BAC-2; first compound 0.5 µM) was 0.168, the relative viability (LC-2-ad; first compound 0.005 µM) was 0.415 and the relative viability (LC-2-ad; first compound 0.01581 µM) was 0.452. The relative viability (LC-2-ad; first compound 0.05 µM) was 0.418, the relative viability (LC-2-ad; first compound 0.1581 µM) was 0.39 and the relative viability (LC-2-ad; first compound 0.5 µM) was 0.301. It also gave a relative viability (NCI-H2228; first compound 0.005 µM) of 0.144, a relative viability (NCI-H2228; first compound 0.01581 µM) of 0.204 and a relative viability (NCI-H2228; first compound 0.05 µM) of 0.207. For the same compound, the relative viability (NCI-H2228; first compound 0.1581 µM) was 0.0929, the relative viability (NCI-H2228; first compound 0.5 µM) was 0.105 and the relative viability (ChaGo-K-1; first compound 0.005 µM) was 0.188. It also gave a relative viability (ChaGo-K-1; first compound 0.01581 µM) of 0.207, a relative viability (ChaGo-K-1; first compound 0.05 µM) of 0.208 and a relative viability (ChaGo-K-1; first compound 0.1581 µM) of 0.16. The relative viability (ChaGo-K-1; first compound 0.5 µM) was 0.149, the relative viability (HARA; first compound 0.005 µM) was 0.102 and the relative viability (HARA; first compound 0.01581 µM) was 0.102. The relative viability (HARA; first compound 0.05 µM) was 0.0829, the relative viability (HARA; first compound 0.1581 µM) was 0.0658 and the relative viability (HARA; first compound 0.5 µM) was 0.0703. It also gave a relative viability (HCC-15; first compound 0.005 µM) of 0.413, a relative viability (HCC-15; first compound 0.01581 µM) of 0.57 and a relative viability (HCC-15; first compound 0.05 µM) of 0.577. It also gave a relative viability (HCC-15; first compound 0.1581 µM) of 0.461, a relative viability (HCC-15; first compound 0.5 µM) of 0.354 and a relative viability (NCI-H358; first compound 0.005 µM) of 0.102. It also gave a relative viability (NCI-H358; first compound 0.01581 µM) of 0.0922, a relative viability (NCI-H358; first compound 0.05 µM) of 0.1 and a relative viability (NCI-H358; first compound 0.1581 µM) of 0.097. For the same compound, the relative viability (NCI-H358; first compound 0.5 µM) was 0.0847, the relative viability (NCI-H838; first compound 0.005 µM) was 0.29 and the relative viability (NCI-H838; first compound 0.01581 µM) was 0.319. The relative viability (NCI-H838; first compound 0.05 µM) was 0.231, the relative viability (NCI-H838; first compound 0.1581 µM) was 0.231 and the relative viability (NCI-H838; first compound 0.5 µM) was 0.161. The relative viability (SK-LU-1; first compound 0.005 µM) was 0.301, the relative viability (SK-LU-1; first compound 0.01581 µM) was 0.325 and the relative viability (SK-LU-1; first compound 0.05 µM) was 0.279. It also gave a relative viability (SK-LU-1; first compound 0.1581 µM) of 0.185, a relative viability (SK-LU-1; first compound 0.5 µM) of 0.189 and a relative viability (NCI-H2405; first compound 0.005 µM) of 0.66. It also gave a relative viability (NCI-H2405; first compound 0.01581 µM) of 0.712, a relative viability (NCI-H2405; first compound 0.05 µM) of 0.56 and a relative viability (NCI-H2405; first compound 0.1581 µM) of 0.429. It also gave a relative viability (NCI-H2405; first compound 0.5 µM) of 0.371, a relative viability (NCI-H2023; first compound 0.005 µM) of 0.238 and a relative viability (NCI-H2023; first compound 0.01581 µM) of 0.223. The relative viability (NCI-H2023; first compound 0.05 µM) was 0.176, the relative viability (NCI-H2023; first compound 0.1581 µM) was 0.101 and the relative viability (NCI-H2023; first compound 0.5 µM) was 0.0955. For the same compound, the relative viability (COR-L23; first compound 0.005 µM) was 0.164, the relative viability (COR-L23; first compound 0.01581 µM) was 0.141 and the relative viability (COR-L23; first compound 0.05 µM) was 0.159. The relative viability (COR-L23; first compound 0.1581 µM) was 0.123, the relative viability (COR-L23; first compound 0.5 µM) was 0.129 and the relative viability (NCI-H1793; first compound 0.005 µM) was 0.346. It also gave a relative viability (NCI-H1793; first compound 0.01581 µM) of 0.32, a relative viability (NCI-H1793; first compound 0.05 µM) of 0.333 and a relative viability (NCI-H1793; first compound 0.1581 µM) of 0.291. For the same compound, the relative viability (NCI-H1793; first compound 0.5 µM) was 0.332.

— the supplement of paper PMC10307832
